Test: Pharmacokinetic study in normal and arthritic model rats after oral administration of APR extract (UPLC-MS/MS of plasma)
Conditions: for Cmax / MRT last / half-life / Tmax: Sprague-Dawley, rat, po, 4.1 mL/kg; for Cmax: C max; for MRT last: MRT0-t; for Tmax: t max
Protocol: One hundred grams of the APR sample was extracted by reflux with 800 mL 50% ethanol/water (v/v) for 3 times (2 hours each time), then combined with the filtrate and concentrated under vacuum with heat, and the concentration of APR extract was 0.37 g/mL. All the sample solutions were stored at 4°C before analysis.
Twelve SD rats were randomly divided into two groups (n = 6) and named as the model group and the normal group, respectively. The arthritic model was established by injecting 0.1 mL of complete Freund's adjuvant in rats. As a control, 0.1 mL of saline was injected. After 7 days, the plasma levels of MDA and TNF-α in normal and model rats were measured by an enzyme-linked immunosorbent assay kit to determine whether the modeling was successful.
The ultrahigh performance liquid chromatography (Thermo Scientific™, Vanquish™, (Waltham, MA, USA)) was used for the chromatographic analysis. UPLC separation was achieved on a Thermo Hypersil GOLD C18 column (100 mm × 2.1 mm, 1.9 μm), which was maintained at 35°C.
The UPLC was interfaced to a Thermo TSQ QUANTIS triple quadrupole mass spectrometer and equipped with an electrospray ionization (ESI) probe working in positive and negative ion exchange scanning mode.
Acetonitrile was used as a precipitation solvent, and protein precipitation was used to handle with the plasma samples. […] Then, the supernatant was dried in a nitrogen environment at 45°C, and the remaining residue was recombined with 100 μL 50% methanol aqueous and vortex for 1 min. Finally, 2 μL supernatant was injected into the UPLC-MS/MS system for analysis.

[1] = plasma, arthritic model rats (complete Freund's adjuvant), oral APR extract 4.1 mL/kg, mean ± SD, n = 6
[2] = plasma, normal rats, oral APR extract 4.1 mL/kg, mean ± SD, n = 6
[3] = plasma, t 1/2, arthritic model rats (complete Freund's adjuvant), oral APR extract 4.1 mL/kg, mean ± SD, n = 6
[4] = plasma, t 1/2, normal rats, oral APR extract 4.1 mL/kg, mean ± SD, n = 6
[5] = oral APR, concentration-time curve
[6] = in vivo, arthritic model rats (complete Freund's adjuvant), oral APR extract 4.1 mL/kg, plasma, mean ± SD, n = 6
[7] = in vivo, normal rats, oral APR extract 4.1 mL/kg, plasma, mean ± SD, n = 6

SMILES	Cmax [1] [ng/mL]	Cmax [2] [ng/mL]	MRT last [1] [h]	MRT last [2] [h]	half-life [3] [h]	half-life [4] [h]	Tmax [1] [h]	Tmax [2] [h]	change of CL in model rats compared with normal rats (model vs normal rats, oral APR)	change of AUC0-t in model rats compared with normal rats (model vs normal rats, oral APR)	change of Cmax in model rats compared with normal rats (model vs normal rats, oral APR)	change of MRT in model rats compared with normal rats (model vs normal rats, oral APR)	also measured
COc1ccc2ccc(=O)oc2c1CC=C(C)C [Osthol, osthol]	4560 ± 272	3640 ± 286	6.94 ± 0.42	6.53 ± 0.29	6.42 ± 0.69	13.4 ± 0.51	0.91 ± 0.2	1.16 ± 0.4	decreased	–	–	–	–
O=C(/C=C/c1ccc(O)c(O)c1)O[C@H]1[C@H](O)C[C@](O)(C(=O)O)C[C@H]1O [Cryptochlorogenic acid, cryptochlorogenic acid]	189 ± 8.7	143 ± 4.63	19.5 ± 0.55	18.3 ± 0.46	48.4 ± 10.5	34.5 ± 17.6	0.45 ± 0.1	0.42 ± 0.12	–	increased	increased	longer	change of t1/2 in model rats compared with normal rats (model vs normal rats, oral APR): longer
O=c1ccc2cc3ccoc3cc2o1 [Psoralen, psoralen]	327 ± 42.5	210 ± 27.6	12.9 ± 0.22	14.3 ± 0.31	5.98 ± 0.44	9.8 ± 3.28	7.66 ± 0.81	8 ± 1.26	decreased	–	–	shortened	–
CC(C)(O)[C@@H]1Cc2c(ccc3ccc(=O)oc23)O1 [Columbianetin, columbianetin]	2220 ± 168	3120 ± 242	12.1 ± 0.2	13.3 ± 0.36	6.07 ± 1.28	6.04 ± 0.12	9 ± 1.09	9.67 ± 0.82	increased	decreased	decreased	shortened	change of AUC0-∞ in model rats compared with normal rats (model vs normal rats, oral APR): decreased
COc1c2ccoc2cc2oc(=O)ccc12 [Bergapten, bergapten]	518 ± 42.9	383 ± 95.8	7.11 ± 0.09	9.4 ± 0.34	7.16 ± 0.41	9.41 ± 2.12	4.67 ± 1.03	3.67 ± 0.82	decreased	–	–	shortened	time of first plasma peak after administration of APR [5]: 5 min; time of second plasma peak after administration of APR [5]: 4 h
COc1c2occc2cc2ccc(=O)oc12 [Xanthotoxin, xanthotoxin]	–	–	–	–	–	–	–	–	–	–	–	–	Cmax [6]: 528 ± 35 ng/mL; Cmax [7]: 554 ± 76 ng/mL; MRT last [6]: 10.3 ± 0.51 h; MRT last [7]: 10.7 ± 0.53 h; half-life (in vivo, t 1/2, arthritic model rats (complete Freund's adjuvant), oral APR extract 4.1 mL/kg, plasma, mean ± SD, n = 6): 14.2 ± 3.76 h; half-life (in vivo, t 1/2, normal rats, oral APR extract 4.1 mL/kg, plasma, mean ± SD, n = 6): 12.1 ± 1.73 h; Tmax [6]: 3.33 ± 1.03 h; Tmax [7]: 4.33 ± 0.82 h
O=C(/C=C/c1ccc(O)c(O)c1)O[C@@H]1[C@H](O)C[C@@](O)(C(=O)O)C[C@H]1OC(=O)/C=C/c1ccc(O)c(O)c1 [3,4-diCQA, isochlorogenic acid B]	79.7 ± 7.11	85.7 ± 8.14	19.8 ± 0.4	21.2 ± 0.73	84.5 ± 24.3	58 ± 12	0.29 ± 0.1	0.29 ± 0.1	–	decreased	–	–	–
CC(C)=CCOc1c2ccoc2cc2oc(=O)ccc12 [Isoimperatorin, isoimperatorin]	232 ± 21	224 ± 26.8	15.7 ± 0.65	15.1 ± 0.57	26.8 ± 5.46	26.9 ± 8.34	0.58 ± 0.2	0.58 ± 0.2	–	–	–	–	–
O=C(/C=C/c1ccc(O)c(O)c1)O[C@@H]1C[C@](O)(C(=O)O)C[C@@H](O)[C@H]1O [Chlorogenic acid, chlorogenic acid]	2760 ± 264	–	8.68 ± 0.52	5.95 ± 0.28	52 ± 13.2	27.9 ± 14.8	0.45 ± 0.1	0.54 ± 0.36	–	increased	increased	longer	change of t1/2 in model rats compared with normal rats (model vs normal rats, oral APR): longer; C max (normal rats, oral APR extract 4.1 mL/kg, plasma, mean ± SD, n = 6): 1669.61 ± 25.80 ng/mL
C/C=C(/C)C(=O)OC(C)(C)[C@@H]1Cc2c(ccc3ccc(=O)oc23)O1 [Columbianadin, columbianadin]	1500 ± 48.2	1680 ± 222	11.5 ± 0.87	12.3 ± 0.57	16.5 ± 4.83	16.4 ± 3.96	0.23 ± 0.03	0.23 ± 0.03	decreased	–	–	–	–
O=C(C=Cc1ccc(O)c(O)c1)OC1CC(O)(C(=O)O)CC(O)C1O (stereo not drawn) [Neochlorogenic acid]	531 ± 24.1	420 ± 58.6	15.6 ± 0.26	15.6 ± 0.68	31.8 ± 10.2	39.9 ± 16.5	0.23 ± 0.03	0.2 ± 0.04	–	–	–	–	change in the pharmacokinetic parameters in normal and model rats (model vs normal rats, oral APR): no significant change
O=C(C=Cc1ccc(O)c(O)c1)OC1CC(O)(C(=O)O)CC(OC(=O)C=Cc2ccc(O)c(O)c2)C1O (stereo not drawn) [3,5-diCQA, isochlorogenic acid A]	405 ± 49.2	293 ± 47.7	18.8 ± 0.49	21.1 ± 0.68	59.5 ± 17.2	33.9 ± 14.3	0.18 ± 0.03	0.18 ± 0.03	–	decreased	increasing	–	change of AUC0-∞ in model rats compared with normal rats (model vs normal rats, oral APR): increasing; change of t1/2 in model rats compared with normal rats (model vs normal rats, oral APR): prolonging

From paper PMC9398717, “Comparison of Pharmacokinetic Profiles of 14 Major Bioactive Components in Normal and Arthritic Model Rats after Oral Administration of Angelicae pubescentis Radix by UPLC-MS/MS” (Evidence-based Complementary and Alternative Medicine : eCAM, 2022)
